For orientation: IC50 means the concentration at which inhibition is half-maximal. Broadly, the Kd is the equilibrium constant for the complex coming apart.

This is an account of results in patent US20230147962A1, “FIBROBLAST ACTIVATION PROTEIN LIGANDS FOR TARGETED DELIVERY APPLICATIONS” (PHILOCHEM AG, priority 2020, published 2023).

Test [1] addresses T1, hFAP (Homo sapiens, UniProt Q12884).
T1 construct: made in house; host or cells: CHO cells, transient gene expression, purified from supernatant
T1 sequence (Q12884 with tags, fused parts or gaps): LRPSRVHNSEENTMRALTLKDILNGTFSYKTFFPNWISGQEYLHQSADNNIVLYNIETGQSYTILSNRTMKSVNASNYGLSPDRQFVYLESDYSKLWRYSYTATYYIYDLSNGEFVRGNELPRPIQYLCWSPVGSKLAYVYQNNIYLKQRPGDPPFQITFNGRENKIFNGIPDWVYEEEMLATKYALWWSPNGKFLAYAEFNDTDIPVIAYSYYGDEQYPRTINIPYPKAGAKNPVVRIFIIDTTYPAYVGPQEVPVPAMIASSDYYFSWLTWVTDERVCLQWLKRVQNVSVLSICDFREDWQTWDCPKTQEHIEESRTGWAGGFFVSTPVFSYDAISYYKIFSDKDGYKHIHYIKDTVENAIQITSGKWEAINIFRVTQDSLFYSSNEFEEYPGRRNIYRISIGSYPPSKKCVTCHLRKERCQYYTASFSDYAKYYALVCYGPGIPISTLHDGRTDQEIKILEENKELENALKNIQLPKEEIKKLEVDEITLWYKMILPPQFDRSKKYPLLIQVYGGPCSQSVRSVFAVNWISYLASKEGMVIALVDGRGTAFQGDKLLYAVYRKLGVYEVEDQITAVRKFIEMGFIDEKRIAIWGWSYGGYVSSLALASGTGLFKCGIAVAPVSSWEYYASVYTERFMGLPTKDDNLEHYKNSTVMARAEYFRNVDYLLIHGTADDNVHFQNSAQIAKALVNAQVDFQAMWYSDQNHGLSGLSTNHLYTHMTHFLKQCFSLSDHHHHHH
The experiment in a line: In vitro human FAP enzyme IC50 assay (Z-Gly-Pro-AMC substrate). The class given is biochemical. The conditions noted are these: for hFAP inhibition (in words): FIG. 17, serial dilution from 10^−6 to 10^−11 M; for IC50: 20 nM human FAP, 20 μM substrate, read-out: IC50 hFAP inhibition. As to the method: Enzymatic activity of human FAP on the Z-Gly-Pro-AMC substrate was measured at room temperature on a microtiter plate reader, monitoring the fluorescence at an excitation wavelength of 360 nm and an emission wavelength of 465 nm. The reaction mixture contained 20 μM substrate, 20 nM human FAP, assay buffer (50 mM Tris, 100 mM NaCl, 1 mM EDTA, pH=7.4) and inhibitor (ranging between 10^−6 and 10^−11 M) in a total volume of 30 μL.
Inhibitor stock solutions (200 mM) were prepared in DMSO. Immediately prior to the commencement of the experiment, the stocks were further diluted to 10^−6 M in the assay buffer, from which 1:2 serial dilutions were prepared. All measurements were done in triplicate.
The reaction mixture contained 20 μM substrate, 20 nM human FAP (constant), assay buffer (50 mM Tris, 100 mM NaCl, 1 mM EDTA, pH=7.4) and inhibitor (serial dilution from 10^−6 to 10^−11 M, 1:2) in a total volume of 20 μL.
Enzymatic activity of human FAP on the Z-Gly-Pro-AMC substrate was measured at room temperature on a microtiter plate reader, monitoring the fluorescence at an excitation wavelength of 360 nm and an emission wavelength of 465 nm. The reaction mixture contained 20 μM substrate, 20 nM human FAP (constant), assay buffer (50 mM Tris, 100 mM NaCl, 1 mM EDTA, pH=7.4) and tested compound (serial dilution from 10^−6 to 10^−11 M, 1:2) in a total volume of 20 μL.

Test [2] concerns the target T1, hFAP. The experiment in a line: Dissociation rate measurement by fluorescence polarization. In kind it is binding. The note with it: 2.0 nM binder, 1.0 μM human FAP, 37° C., 20 μM fluorescein-free competitor. The method, then: Fluorescence polarization measurements to determine the koff values were performed in 384-well plates (non-binding, ps, f-bottom, black, high volume, 30 μL final volume). The measurements were carried out after pre-incubation of 2.0 nM fluorescein-labelled binders with human FAP at a constant concentration of 1.0 μM at 37° C. in the dark. The dissociation of the fluorescein-labeled compound was induced by adding a large excess of the corresponding fluorescein-free binders (compound P3 obtained in Step 3 of Example 2 and compound H6 obtained in Step 6 of Comparative Example 1, respectively, each at 20 μM final concentration).

In test [3] the target is T1, hFAP. The experiment in a line: Affinity measurement to human FAP by fluorescence polarization. In kind it is binding. The conditions noted are these: binder 10 nM, read-out: KD to hFAP. As to the method: Fluorescence polarization measurements were performed in 384-well plates (non-binding, ps, f-bottom, black, high volume, 30 μL final volume). A stock solution of human FAP (4 μM) was serially diluted with buffer (50 mM Tris, 100 mM NaCl, 1 mM EDTA, pH=7.4), while the final concentration of the binders was kept constant at 10 nM. The measurements were carried out after incubating for 30 min at 37° C. in the dark by fluorescent polarization (FIG. 4).
(§1) Fluorescence polarization experiments were performed in 384-well plates (non-binding, ps, f-bottom, black, high volume, 30 μL final volume). Stock solutions of human FAP (4 μM) and murine FAP (5 μM) were serially diluted with buffer (50 mM Tris, 100 mM NaCl, 1 mM EDTA, pH=7.4), while the final concentration of the binders was kept constant at 10 nM. The fluorescence anisotropy was measured on a TECAN microtiter plate reader. Experiments were performed in triplicate and the mean anisotropy values fitted using Prism 7.

Test [4] has as its target T1, hFAP. The experiment in a line: Chromatographic co-elution (PD-10) of ligand-protein complexes, hFAP. In kind it is binding. The note with it: PD-10 column, hFAP 2 μM. As to the method: A PD-10 column was pre-equilibrated with assay buffer (50 mM Tris, 100 mM NaCl, 1 mM EDTA, pH=7.4) prior to the loading of the complex. Human FAP (2 μM) and fluorescein-labeled binders (6 μM) were incubated for 30 min at 37° C. in the dark. The mixture was loaded and the column was flushed using the assay buffer. The flow through was collected in 96-well plates and the fluorescence was measured immediately on a TECAN microtiter plate reader, monitoring the fluorescence at an excitation wavelength of 485 nm and an emission wavelength of 535 nm. The protein quantities were estimated by measuring the absorbance at 280 nm using a Nanodrop 2000/2000c spectrophotometer.
A PD-10 column was pre-equilibrated with assay buffer (50 mM Tris, 100 mM NaCl, 1 mM EDTA, pH=7.4) prior to the loading of the complex. A mixture of different proteins (hFAP=2 μM, mFAP=5 μM) and conjugate 15 (100 nM) were incubated and loaded on the column. The mixture was flushed using the assay buffer. The flow through was collected in 96-well plates and the fluorescence intensity was measured immediately on a TECAN microtiter plate reader, monitoring the fluorescence at an excitation wavelength of 485 nm and an emission wavelength of 535 nm. The concentration of the proteins was estimated by measuring the absorbance at 280 nm using a Nanodrop 2000/2000c spectrophotometer.

For another test, the target named is T2, murine FAP (Mus musculus, UniProt P97321).
T2 sequence (P97321 1-761): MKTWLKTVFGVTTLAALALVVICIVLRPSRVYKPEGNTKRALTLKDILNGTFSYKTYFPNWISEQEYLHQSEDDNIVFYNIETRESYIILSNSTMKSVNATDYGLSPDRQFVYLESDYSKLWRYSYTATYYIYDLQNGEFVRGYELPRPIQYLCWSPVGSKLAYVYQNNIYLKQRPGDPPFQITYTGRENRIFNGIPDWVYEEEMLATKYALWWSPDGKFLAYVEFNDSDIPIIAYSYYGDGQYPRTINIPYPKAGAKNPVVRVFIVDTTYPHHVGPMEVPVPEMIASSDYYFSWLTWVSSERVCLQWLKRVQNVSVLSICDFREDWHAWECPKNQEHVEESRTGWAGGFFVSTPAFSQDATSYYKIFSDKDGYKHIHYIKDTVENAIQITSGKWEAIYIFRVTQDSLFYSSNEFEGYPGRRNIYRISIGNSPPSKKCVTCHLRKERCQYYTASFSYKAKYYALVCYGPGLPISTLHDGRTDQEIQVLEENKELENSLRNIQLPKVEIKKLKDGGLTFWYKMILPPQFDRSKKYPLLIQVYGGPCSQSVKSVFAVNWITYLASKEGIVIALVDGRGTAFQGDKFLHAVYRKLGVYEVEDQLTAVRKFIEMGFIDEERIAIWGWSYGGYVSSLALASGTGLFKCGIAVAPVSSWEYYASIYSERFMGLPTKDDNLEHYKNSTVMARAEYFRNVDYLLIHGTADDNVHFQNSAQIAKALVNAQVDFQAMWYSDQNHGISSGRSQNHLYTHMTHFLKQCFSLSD
The experiment in a line: Affinity measurement to murine FAP by fluorescence polarization. The note with it: binder 10 nM, read-out: KD to mFAP. In kind it is binding. The method, then:
as §1

Where [5] appears, read: FIG. 5, 30 min preincubation at 37° C.

Read-outs that look alike come from different tables or passages of the source. *1 amine or outer side, *2 acyl side, *3 side chain or, on linkers, in order; H or OH if unused. Where a SMILES comes first, the peptide text is derived from it. The star is where a group is joined. Fluorescein(5-Mal) = O=C1OC2(c3ccc(O)cc3Oc3cc(O)ccc32)c2ccc(N3C(=O)CC(*)C3=O)cc21; X2 = N#C[C@@H]1CC(F)(F)CN1C(=O)CNC(=O)c1ccnc2ccc(OCCCN3CCN(*)CC3)cc12; Suc = O=C(CCC(=O)[*:2])[*:1]

Take `COc1ccc2nccc(C(=O)NCC(=O)N3CCC[C@H]3C#N)c2c1` [Conjugate 28, (S)-N-(2-(2-cyanopyrrolidin-1-yl)-2-oxoethyl)-6-methoxyquinoline-4-carboxamide]: at hFAP [1], the “hFAP inhibition (in words)” value was “lower FAP inhibition property compared with Example 2, P4”.
As to `N#C[C@@H]1CC(F)(F)CN1C(=O)CNC(=O)c1ccnc2c(N)cccc12` [ESV6 ligand], the IC50 on hFAP [1] (setting [5]) was determined as 20.2 nM.
In the case of `N#C[C@@H]1CC(F)(F)CN1C(=O)CNC(=O)c1ccnc2c(NC(=O)CCC(=O)NCCOCCOCCNC(=S)Nc3ccc4c(c3)C(=O)OC43c4ccc(O)cc4Oc4cc(O)ccc43)cccc12` [ESV6-fluo, (S)—N1-(4-((2-(2-cyano-4,4-difluoropyrrolidin-1-yl)-2-oxoethyl)carbamoyl)quinolin-8-yl)-N4-(2-(2-(2-(3-(3′,6′-dihydroxy-3-oxo-3H-spiro[isobenzofuran-1,9′-xanthen]-5-yl)thioureido)ethoxy)ethoxy)ethyl)succinamide], the “dissociation from hFAP, regression coefficient” value on hFAP [2] is −0.09356. Further, the Kd on hFAP [3] is 0.78 nM. Further, on hFAP [4], the “complex formation with hFAP in PD-10 co-elution” value was “stable complex is formed”.
With `N#C[C@@H]1CC(F)(F)CN1C(=O)CNC(=O)c1ccnc2ccc(OCCCN3CCNCC3)cc12` [Conjugate H6, (S)—N-(2-(2-cyano-4,4-difluoropyrrolidin-1-yl)-2-oxoethyl)-6-(3-(piperazin-1-yl)propoxy)quinoline-4-carboxamide], the IC50 at hFAP [1] (setting [5]) turned out to be 24.6 nM.
On the same count and under the same terms, to `N#C[C@@H]1CC(F)(F)CN1C(=O)CNC(=O)c1ccnc2ccc(OCCCN3CCNCC3)cc12` [Haberkorn ligand] belongs 24.6 nM.
On to `N#C[C@@H]1CC(F)(F)CN1C(=O)CNC(=O)c1ccnc2ccc(OCCCN3CCN(C(=O)CCC(=O)N[C@@H](CC(=O)O)C(=O)N[C@@H](CCCCN)C(=O)N[C@@H](CC(=O)O)C(=O)N[C@@H](CSC4CC(=O)N(c5ccc6c(c5)C(=O)OC65c6ccc(O)cc6Oc6cc(O)ccc65)C4=O)C(=O)O)CC3)cc12` (stereo partly shown) [conjugate 25, reference compound] ({X2-Suc}-DKDC(Fluorescein(5-Mal))-OH), for which the Kd at hFAP [3] is 1.02 nM; at murine FAP, 30.9 nM.
In the case of `N#C[C@@H]1CC(F)(F)CN1C(=O)CNC(=O)c1ccnc2c(NC(=O)CCC(=O)O)cccc12` [Conjugate P4, (S)-4-((4-((2-(2-cyano-4,4-difluoropyrrolidin-1-yl)-2-oxoethyl)carbamoyl)quinolin-8-yl)amino)-4-oxobutanoic acid], the IC50 on hFAP [1] (FIG. 9, total volume 20 μL) is 16.8 nM.
As for `N#C[C@@H]1CC(F)(F)CN1C(=O)CNC(=O)c1ccnc2ccc(OCCCN3CCN(C(=O)c4ccc5c(c4)C(=O)OC54c5ccc(O)cc5Oc5cc(O)ccc54)CC3)cc12` [Haberkorn-fluo, (S)—N-(2-(2-cyano-4,4-difluoropyrrolidin-1-yl)-2-oxoethyl)-6-(3-(4-(3′,6′-dihydroxy-3-oxo-3H-spiro[isobenzofuran-1,9′-xanthene]-5-carbonyl)piperazin-1-yl)propoxy)quinoline-4-carboxamide, reference compound], the “dissociation from hFAP, regression coefficient” value on hFAP [2] is −0.07511. Besides, the Kd at hFAP [3] was 0.89 nM. Moreover, the “complex formation with hFAP in PD-10 co-elution” value at hFAP [4] is on record as “stable complex is formed”.
For the molecule `N#C[C@@H]1CC(F)(F)CN1C(=O)CNC(=O)c1ccnc2c(N)cccc12` [Conjugate P3, (S)-8-amino-N-(2-(2-cyano-4,4-difluoropyrrolidin-1-yl)-2-oxoethyl)quinoline-4-carboxamide], the IC50 at hFAP [1] (setting [5]) came to 20.2 nM.
As for `N#C[C@@H]1CC(F)(F)CN1C(=O)CNC(=O)c1ccnc2cc(Nc3ccccc3)ccc12` [compound 24, (S)-N-(2-(2-cyano-4,4-difluoropyrrolidin-1-yl)-2-oxoethyl)-7-(phenylamino)quinoline-4-carboxamide], at hFAP [1] (FIG. 9, total volume 20 μL), the half-maximal inhibitory concentration (IC50) came to 33.5 nM.
With `C[C@H](NC(=O)c1ccnc(CNC(=O)CCC(=O)O)c1)C(=O)N1CC(F)(F)C[C@H]1C#N` [Conjugate 29, 4-(((4-(((S)-1-((S)-2-cyano-4,4-difluoropyrrolidin-1-yl)-1-oxopropan-2-yl)carbamoyl)pyridin-2-yl)methyl)amino)-4-oxobutanoic acid], the “hFAP inhibition (in words)” value at hFAP [1] was “does not inhibit FAP proteolytic activity at the concentrations tested in the assay”.
